The term Papp A→B denotes the apparent permeability from the apical to the basolateral side of a cell layer. Read a high Papp A→B as ready permeation. One may read the Papp B→A as how fast a substance crosses the layer from the basolateral side. By viability is commonly meant a read-out of living cells in per cent, often relative to untreated cells. A lower viability goes with a greater loss of cells.

The values below come from publication PMC12754760, “Size-Controlled Mesoporous Silica Nanoparticles via Template Nanoarchitectonics from a Deferoxamine Derivative for Enhanced Blood–Brain Barrier Permeability and Neuroprotective Chelation Therapy” (ACS Applied Materials & Interfaces, 2025).

Counter-ions that a name gives are not always drawn.

A short description of data set [1]: Caco-2 monolayer drug transport (in vitro BBB model). In kind it is in vitro ADME. Conditions: human. As to the method:
The preparation of the Caco-2 cell monolayer as an in vitro BBB model was performed as follows: Caco-2 cells were seeded at a density of 10.000 cells per well on a Millicell 96-well cell culture plate. The culture medium was replaced every 48 h. The formation of the monolayer was monitored by measuring the transepithelial electrical resistance (TEER) using an epithelial voltohmmeter (Millicell-ERS). After 21 days of culture, the Caco-2 cell monolayers were used for permeability experiments. All TEER values measured immediately before the experiments were above 300 Ω·cm^2, confirming the integrity of the monolayer.
Drug transport experiments were carried out following the previously published protocol. Briefly, after 21 days of culture, the medium was removed, and the cells were washed twice with Hank’s Balanced Salt Solution (HBSS) to eliminate any residual culture medium. Subsequently, the wells were refilled with HBSS and incubated at 37 °C for 30 min. After incubation, the HBSS was removed, and solutions containing the compound were added either to the filter well (apical side) or to the receiver plate (basolateral side), while HBSS without the compound was added to the corresponding opposite side. The final concentration of the compounds was 10^–4 M. The plates were then incubated at 37 °C for 2 h. At the end of the incubation period, the samples from both compartments were collected and analyzed by UV–vis spectroscopy. The apparent permeability coefficient (Papp), expressed in nm·s^–1, was calculated using the following equation: 1 Papp=[VA/(area×time)]×([drug]acceptor/[drug]receptor) where VA is the volume (mL) in the acceptor well, area is the surface area of the membrane (0.11 cm^2 of the well), time is the total transport time (7200 s), and [drug] is drug concentration measured by UV–vis spectroscopy.

Data set [2] is described as follows: Cell viability assay SH-SY5Y (MTT). In kind it is cell-based. Conditions: human, SH-SY5Y cells. As to the method: Briefly, 10.000 BV-2 cells/well in 100 μL of culture medium were seeded into 96-well plates (transparent plate, clear bottom; Costar, Corning Inc.) and incubated overnight at 37 °C in 5% CO2. Stock solutions of the drug were preparate in DMSO, keeping it concentration <1% in the experiments. […] Stock solutions were prepared just before their use. Control wells with DMSO were used to evaluate the possible cytotoxicity of the solvent. After 72 h incubation, CCK-8 (10 μL) was added to each well, and after 3–4 h of incubation at 37 °C, the absorbance values at λ = 450 nm were determined on the Tecan Infinite 200 microplate reader. The cytotoxicity assay for SH-SY5Y was conducted by seeding cells at a density of 40.000 cells/well for 24 h in 96-well plate and incubated overnight. […] The plate was incubated for 24 h. After this time, MTT (10 μL) was added to each well, and after 3–4 h of incubation at 37 °C, the absorbance values at λ = 540 nm were determined on the Tecan Infinite 200 microplate reader.
Data were plotted as % cell viability, normalized vs untreated cells by using GraphPad Prism software version 7.05. Values are expressed as the mean ± SEM of at least three independent experiments. […]

The conditions of data set [3]: in vivo; cited from earlier work.

As for `CC(=O)N(O)CCCCCNC(=O)CCC(=O)N(O)CCCCCNC(=O)CCC(=O)N(O)CCCCCN` [DFO, Deferoxamine mesylate], in data set [1] (apical-to-basolateral, 10^–4 M, 2 h, 37 °C), the apical-to-basolateral permeability (Papp A→B) at 2 h stood at 76.1 ×10⁻⁶ cm/s. Moreover, in data set [1] (basolateral-to-apical, 10^–4 M, 2 h, 37 °C), the Papp B→A at 2 h turned out to be 162 ×10⁻⁶ cm/s. In addition, the efflux ratio at 2 h in data set [1] (read-out: BA/AB permeability ratio) is 2.13. The viability at 24 h, 100 µM in data set [2] was around 100%. In addition, the Plasma half-life in data set [3] is 20 to 30 min.
